Six compounds from patent US6524625B2, “Physiologically active extract obtained from indigo plant polygonum tinctorium” (Kabushiki Kaisha Hayashibara Seibutsu Kagaku Kenkyuto, priority 1998, dated 2003) can be followed below.

Data set [1] is described as follows: Radical-entrapping action, nitro blue tetrazolium (NBT) method. Type of data set: biochemical. The settings on record: for Radical-entrapping action (in words): comment on Table 11; for Radical-entrapping action: one unit = 50% inhibition of formazan formation, xanthin oxidase/xanthin/NBT. The method, then:
Then the formed formazan was quantified on spectro-chemical analysis. Either of the present physiologically active extracts was dissolved in a refined water to give an appropriate concentration, and the solutions were used for test samples. As a control it was provided by replacing the test samples with a refined water. The 50% inhibitory activity for the formation of formazan in the control was defined as a one unit activity of radical-entrapping action. Based of the definition, the radical-entrapping activity of one gram of each test sample was determined.

The test system of data set [2] is Helicobacter pylori (NCTC 11638). The data set can be described thus: Antiseptic action: MIC, agar plate dilution method. Type of data set: cell-based. The settings on record: for MIC: NCTC11638, Helicobacter pylori (NCTC 11638), Brucella broth agar with horse blood, read-out: Minimum inhibitory concentration; for Inhibition of the growth of Helicobacter pylori (in words): comment on Table 8.

A further data set relates to HGC-27 cells. The experiment in a line: Antitumor action: growth inhibition, methylene blue staining. Type of data set: cell-based. The settings on record: Homo sapiens; HGC-27 cells, 48 hours; read-out: 50% growth inhibitory concentration. The method, then:
(§1) Solutions in each well were serially diluted with a fresh preparation of the same RPMI1640 medium (pH 7.2) as used in the above. […] Each cell suspension was distributed to a microplate in a volume of 50 μl/well and incubated at 37° C. for 48 hours in a 5 v/v % CO2 incubator. To each microplate, a 25 v/v % aqueous glutaraldehyde solution was added in a volume of 20 μl/well, and the microplate was allowed to stand for 15 min to fix the cells. Then, the cells adhered to the wells were washed with water, admixed with a 0.05 w/v % aqueous methylene blue solution in a volume of 100 μl/well, and further allowed to stand for 15 min to stain the cells. Thereafter, an excessive amount of the staining solution was removed from the wells by washing with water, and the cells were dried, admixed with 300 μl/well of 0.33 N hydrochloric acid, stirred sufficiently, and measured for absorption at a wavelength of 620 nm. In parallel, as a control, a system free of a test sample was provided and treated similarly as in the test samples. […]

The test system of the next data set is HLC-1 cells. The data set is described as above. The settings on record: Homo sapiens; HLC-1 cells, 48 hours; read-out: 50% growth inhibitory concentration. It counts as cell-based. The method, then: as §1
In another data set the test system is HL-60 cells. The description is as above. It counts as cell-based. The settings on record: Homo sapiens; HL-60 cells, 48 hours; read-out: 50% growth inhibitory concentration. Here is the method: as §1
The test system of data set [3] is Bacillus cereus (IFO 3466). The experiment in a line: Antiseptic action: MIC, agar plate dilution method. It counts as cell-based. The settings on record: IFO3466; Bacillus cereus (IFO 3466); read-out: Minimum inhibitory concentration.
Data set [4] deals with Staphylococcus aureus (ATCC 6538P). The experiment in a line: Antiseptic action: MIC, agar plate dilution method. Type of data set: cell-based. The settings on record: ATCC6538P; Staphylococcus aureus (ATCC 6538P); read-out: Minimum inhibitory concentration.
In data set [5] the test system is vesicular stomatitis virus (VSV). The experiment in a line: microbe, parasite or virus in culture. It counts as cell-based. To be noted: L929, 24 h, read-out: 50% Growth inhibitory concentration.
For data set [6], the system named is Pseudomonas aeruginosa (IFO 3453). The experiment in a line: Antiseptic action: MIC, agar plate dilution method. To be noted: IFO3453; Pseudomonas aeruginosa (IFO 3453); read-out: Minimum inhibitory concentration. Type of data set: cell-based.
The next data set relates to interferon-γ production. To be noted: HBL-38 cells + LPS; for Interferon-γ production level: 24 hours, positive control 5.468, negative control 1.367. The method, then:
HBL-38 cells as an immunocompetent cell were cultured until proliferated to a prescribed cell density. After culturing, the proliferated HBL-38 cells were washed three times with RPMI1640 medium (pH 7.2) (hereinafter designated as “serum-free medium” in Experiment 15) by centrifugation, and adjusted to give a cell density of 1×10^8 cells/ml using the serum-free medium. To one milliliter of the cell suspension were added 4.5 ml of the serum-free medium and 0.5 ml of a disperse solution prepared by dissolving dispase, commercialized by Godo Shusei, Co., Ltd., Tokyo, Japan, in physiological saline to give a concentration of 10,000 units/ml, and the mixture was incubated at 37° C. for 90 min under shaking conditions. Thereafter, HBL-38 cells were washed three times with the serum medium by centrifugation and mixed with the serum medium into a cell suspension with a cell density of 1×10^6 cells/ml.
(§2) […] of either of the above dilutes of Compound 7, 150 μl of the above cell suspension of HBL-38 cells treated with disperse, and 50 μl of a serum-free medium containing 5 μg/ml of lipopolysaccharide (LPS) were added to each well in a microplate, and the cells were incubated at 37° C. for 24 hours in a 5 v/v % CO2 incubator and used for test group. In parallel, as a negative control, a system with a serum-free medium in place of the serum-free medium containing LPS in the test group, and, as a positive group, a system with a serum medium in place of the dilute of Compound 7 in the test group were provided and treated similarly as in test group. After 24-hour incubation, 50 μl aliquots of supernatants from each well were collected. The collected supernatants were respectively subjected to conventional enzyme immunoassay using Gg23-901-530, obtained from National Institute of Health, Bethesda, Md., USA, as a standard for human interferon-γ, and quantified for interferon-γ production in each system. The cells in each well, from which the supernatants were removed, were mixed with 50 μl aliquots of a ^3H-thymidine solution with a radiation intensity of 5 μCi/ml in serum medium, and incubated at 37° C. for eight hours in a 5 v/v % CO2 incubator. Thereafter, the cells in each well in the microplate were collected with a glass filter, measured for radiation intensity by “DIRECT β-COUNTER MATRIX 96”, a β-ray detector commercialized by Packard Instrument Co., Conn., USA, and examined for ^3H-thymidine uptake by the cells in each well. […] In Table 13 the level of ^3H-thymidine uptake is expressed with a relative value (%) to the positive control.

A further data set deals with HBL-38 cells. To be noted: for Relative value of 3H-thymidine uptake: HBL-38 cells, relative to positive control = 100. The method, then: as §2

Converted amounts (≈) assume the structure as drawn. Where two headings read alike, the source gives them in different places.

Take `O=C(O)c1cc(O)c(O)c(O)c1` [Compound 5, gallic acid]: in [1], the “Radical-entrapping action (in words)” value was “remarkable” and the Radical-entrapping action is 692,000 unit/g.

In the case of `O=C(O)/C=C/c1ccc(O)c(O)c1` [Compound 6, caffeic acid], in data set [1], the “Radical-entrapping action (in words)” value was “remarkable” and the Radical-entrapping action was 418,000 unit/g.

Turning to `COc1c(O)cc2oc(-c3ccc(O)cc3)c(O)c(=O)c2c1O` [Compound 4, 3,5,7,4′-tetrahydroxy-6-methoxy-flavone], in data set [2], the MIC worked out at 39 µg/mL (≈ 123 µM) and the “Inhibition of the growth of Helicobacter pylori (in words)” value is “strongly inhibited the growth”. For the same compound, in data set [1], the Radical-entrapping action is on record as 4,010 unit/g.

`O=c1c(O)c(-c2ccc(O)cc2)oc2cc3c(c(O)c12)OCO3` [Compound 2, 3,5, 4′-trihydroxy-6,7-methylenedioxy-flavone]: the IC50 was 37.1 µg/mL (≈ 118 µM) in the data set with HGC-27 cells, 40.4 µg/mL (≈ 129 µM) in the data set with HLC-1 cells, 244 µg/mL (≈ 775 µM) with HL-60 cells and 14 µg/mL (≈ 44.6 µM) in data set [5]. Further, the MIC in data set [2] amounted to 156 µg/mL (≈ 496 µM); in data set [3] it was 313 µg/mL (≈ 996 µM); in data set [4], 313 µg/mL (≈ 996 µM); in [6], 313 µg/mL (≈ 996 µM). Besides, the Radical-entrapping action in data set [1] is 1,830 unit/g.

In the case of `O=c1c(O)c(-c2ccc(O)cc2)oc2cc(O)cc(O)c12` [Compound 3, kaempferol], in [2], the MIC was determined as 39 µg/mL (≈ 136 µM) and the “Inhibition of the growth of Helicobacter pylori (in words)” value is “strongly inhibited the growth”. Besides, the Radical-entrapping action in [1] is 14,000 unit/g.

Regarding `O=C1Nc2ccccc2/C1=C1/Nc2ccccc2C1=O` [Compound 7, 3-(1,3-dihydro-3-oxo-2H-indol-2-ylidene)-1,3-dihydro-2H-indol-2-one], the Interferon-γ production level in the data set on interferon-γ production (0.07 ng/ml) is on record as 2.753 IU/ml; in the data set with interferon-γ production (0.15 ng/ml), 2.195 IU/ml; with interferon-γ production (0.31 ng/ml), 1.979 IU/ml; in the data set with interferon-γ production (0.62 ng/ml) it was 1.958 IU/ml; in the data set on interferon-γ production (1.25 ng/ml), 1.288 IU/ml; with interferon-γ production (2.5 ng/ml), 1.342 IU/ml. In addition, the Interferon-γ production level was 0.932 IU/ml in the data set on interferon-γ production (5.0 ng/ml) and 0.965 IU/ml in the data set with interferon-γ production (10.0 ng/ml). The “Concentration at which interferon-γ production was inhibited to the same or lower level as the negative control free of LPS” value with interferon-γ production was “at least 1.25 ng/ml”. Also, in the data set on interferon-γ production, the “Inhibition of interferon-γ production (in words)” value is listed as “inhibited the interferon-γ production dose-dependently”. In addition, the “Relative value of 3H-thymidine uptake” value with HBL-38 cells (0.07 ng/ml) is reported as 98.0%; in the data set on HBL-38 cells (0.15 ng/ml) it was 98.3%; in the data set on HBL-38 cells (0.31 ng/ml), 99.7%; in the data set with HBL-38 cells (0.62 ng/ml) it was 96.4%; in the data set on HBL-38 cells (1.25 ng/ml), 99.6%; in the data set on HBL-38 cells (2.5 ng/ml), 105.7%. Moreover, the figures for the “Relative value of 3H-thymidine uptake” value in the data set on HBL-38 cells (5.0 ng/ml) and in the data set on HBL-38 cells (10.0 ng/ml) were 101.1% and 99.4%, respectively. In addition, the “Level of 3H-thymidine uptake by HBL-38 cells, control vs test groups (in words)” value with HBL-38 cells (0.07-10.0 ng/ml) was “no significant difference”.
